# Results: PubChem BioAssay AID1259407 (Chemical Carcinogenesis Research Information System (CCRIS), 2018)
# Calls of active or inactive are those of the source. How the calls were made is not given here.
# System: CCRIS mutagenicity, Ames/micronucleus/aberration tests
# Assay: CCRIS mutagenicity studies
# [1] = Test System: AMES SALMONELLA TYPHIMURIUM, Strain/Indicator: TA98, Metabolic Activation: HAMSTER, LIVER, S-9, AROCLOR 1254 (10%), Method: PREINCUBATION
# [2] = Test System: AMES SALMONELLA TYPHIMURIUM, Strain/Indicator: TA98, Metabolic Activation: NONE, Method: PREINCUBATION
# [3] = Test System: AMES SALMONELLA TYPHIMURIUM, Strain/Indicator: TA98, Metabolic Activation: RAT, LIVER, S-9, AROCLOR 1254 (10%), Method: PREINCUBATION
# [4] = Test System: AMES SALMONELLA TYPHIMURIUM, Strain/Indicator: TA100, Metabolic Activation: HAMSTER, LIVER, S-9, AROCLOR 1254 (10%), Method: PREINCUBATION
# [5] = Test System: AMES SALMONELLA TYPHIMURIUM, Strain/Indicator: TA100, Metabolic Activation: NONE, Method: PREINCUBATION
# [6] = Test System: AMES SALMONELLA TYPHIMURIUM, Strain/Indicator: TA100, Metabolic Activation: RAT, LIVER, S-9, AROCLOR 1254 (10%), Method: PREINCUBATION
# [7] = Test System: AMES SALMONELLA TYPHIMURIUM, Strain/Indicator: TA1535, Metabolic Activation: HAMSTER, LIVER, S-9, AROCLOR 1254 (10%), Method: PREINCUBATION
# [8] = Test System: AMES SALMONELLA TYPHIMURIUM, Strain/Indicator: TA1535, Metabolic Activation: NONE, Method: PREINCUBATION
# [9] = Test System: AMES SALMONELLA TYPHIMURIUM, Strain/Indicator: TA1535, Metabolic Activation: RAT, LIVER, S-9, AROCLOR 1254 (10%), Method: PREINCUBATION
# [10] = Test System: AMES SALMONELLA TYPHIMURIUM, Strain/Indicator: TA98, Metabolic Activation: HAMSTER, LIVER, S-9, AROCLOR 1254 (30%), Method: PREINCUBATION
# [11] = Test System: AMES SALMONELLA TYPHIMURIUM, Strain/Indicator: TA98, Metabolic Activation: RAT, LIVER, S-9, AROCLOR 1254 (30%), Method: PREINCUBATION
# [12] = Test System: AMES SALMONELLA TYPHIMURIUM, Strain/Indicator: TA100, Metabolic Activation: HAMSTER, LIVER, S-9, AROCLOR 1254 (30%), Method: PREINCUBATION
# [13] = Test System: AMES SALMONELLA TYPHIMURIUM, Strain/Indicator: TA100, Metabolic Activation: RAT, LIVER, S-9, AROCLOR 1254 (30%), Method: PREINCUBATION
Structure (SMILES),mutagenic call [1],mutagenic call [2],mutagenic call [3],mutagenic call [4],mutagenic call [5],mutagenic call [6],mutagenic call [7],mutagenic call [8],mutagenic call [9],mutagenic call [10],mutagenic call [11],mutagenic call [12],mutagenic call [13],further results
C[N+](=O)[O-],inactive; negative,inactive; negative,inactive; negative,inactive; negative,inactive; negative,inactive; negative,inactive; negative,inactive; negative,inactive; negative,–,–,–,–,"mutagenic call (Test System: AMES SALMONELLA TYPHIMURIUM, Strain/Indicator: TA98, Metabolic Activation: HAMSTER, LIVER, S-9, AROCLOR 1254, FLAVIN MONONUCLEOTIDE, Method: PREINCUBATION): inactive; negative; mutagenic call (Test System: AMES SALMONELLA TYPHIMURIUM, Strain/Indicator: TA98, Metabolic Activation: RAT, LIVER, S-9, KANECHLOR 500, Method: PREINCUBATION): inactive; negative; mutagenic call (Test System: AMES SALMONELLA TYPHIMURIUM, Strain/Indicator: TA100, Metabolic Activation: HAMSTER, LIVER, S-9, AROCLOR 1254, FLAVIN MONONUCLEOTIDE, Method: PREINCUBATION): inactive; negative; mutagenic call (Test System: AMES SALMONELLA TYPHIMURIUM, Strain/Indicator: TA100, Metabolic Activation: RAT, LIVER, S-9, KANECHLOR 500, Method: PREINCUBATION): inactive; negative; mutagenic call (Test System: AMES SALMONELLA TYPHIMURIUM, Strain/Indicator: TA1537, Metabolic Activation: HAMSTER, LIVER, S-9, AROCLOR 1254 (10%), Method: PREINCUBATION): inactive; negative; mutagenic call (Test System: AMES SALMONELLA TYPHIMURIUM, Strain/Indicator: TA1537, Metabolic Activation: NONE, Method: PREINCUBATION): inactive; negative; mutagenic call (Test System: AMES SALMONELLA TYPHIMURIUM, Strain/Indicator: TA1537, Metabolic Activation: RAT, LIVER, S-9, AROCLOR 1254 (10%), Method: PREINCUBATION): inactive; negative; mutagenic call (Test System: E. COLI, Strain/Indicator: WP2 UVRA (PKM101), Metabolic Activation: NONE, Method: PREINCUBATION): inactive; negative; mutagenic call (Test System: E. COLI, Strain/Indicator: WP2 UVRA (PKM101), Metabolic Activation: RAT, LIVER, S-9, KANECHLOR 500, Method: PREINCUBATION): inactive; negative; mutagenic call (Test System: MOUSE LYMPHOMA, Strain/Indicator: L5178Y (TK+/TK-), Metabolic Activation: NONE, Method: SUSPENSION/PLATE): active; positive. reevaluation of results: equivocal; mutagenic call (Test System: Mouse lymphoma, Strain/Indicator: L5178Y (tk+/tk-), Metabolic Activation: Rat, Liver, S-9, Aroclor 1254, Method: Suspension/plate): inactive; negative"
COc1cc(N)ccc1C,–,inactive; negative,–,–,inactive; negative,–,–,–,–,active; positive,active; positive,active; positive,active; positive,–
Nc1cc(N)c(N=Nc2ccc(S(=O)(=O)O)cc2S(=O)(=O)O)cc1N=Nc1ccc(-c2ccc(N/N=C3\C=CC(=O)C(C(=O)O)=C3)cc2)cc1,–,–,–,–,–,–,–,–,–,–,–,–,–,"mutagenic call (Test System: AMES SALMONELLA TYPHIMURIUM, Strain/Indicator: TA98, Metabolic Activation: HAMSTER, LIVER, S-9, Method: PREINCUBATION (PRIVAL METHOD)): active; positive"
O=Cc1ccc(Cl)c(Cl)c1,inactive; negative,inactive; negative,inactive; negative,inactive; negative,inactive; negative,inactive; negative,inactive; negative,inactive; negative,inactive; negative,inactive; negative,inactive; negative,inactive; negative,inactive; negative,"mutagenic call (Test System: AMES SALMONELLA TYPHIMURIUM, Strain/Indicator: TA97, Metabolic Activation: HAMSTER, LIVER, S-9, AROCLOR 1254 (10%), Method: PREINCUBATION): inactive; negative; mutagenic call (Test System: AMES SALMONELLA TYPHIMURIUM, Strain/Indicator: TA97, Metabolic Activation: HAMSTER, LIVER, S-9, AROCLOR 1254 (30%), Method: PREINCUBATION): inactive; negative; mutagenic call (Test System: AMES SALMONELLA TYPHIMURIUM, Strain/Indicator: TA97, Metabolic Activation: NONE, Method: PREINCUBATION): inactive; negative; mutagenic call (Test System: AMES SALMONELLA TYPHIMURIUM, Strain/Indicator: TA97, Metabolic Activation: RAT, LIVER, S-9, AROCLOR 1254 (10%), Method: PREINCUBATION): inactive; negative; mutagenic call (Test System: AMES SALMONELLA TYPHIMURIUM, Strain/Indicator: TA97, Metabolic Activation: RAT, LIVER, S-9, AROCLOR 1254 (30%), Method: PREINCUBATION): inactive; negative; mutagenic call (Test System: AMES SALMONELLA TYPHIMURIUM, Strain/Indicator: TA104, Metabolic Activation: HAMSTER, LIVER, S-9, AROCLOR 1254 (10%), Method: PREINCUBATION): inactive; negative; mutagenic call (Test System: AMES SALMONELLA TYPHIMURIUM, Strain/Indicator: TA104, Metabolic Activation: HAMSTER, LIVER, S-9, AROCLOR 1254 (30%), Method: PREINCUBATION): inactive; negative; mutagenic call (Test System: AMES SALMONELLA TYPHIMURIUM, Strain/Indicator: TA104, Metabolic Activation: NONE, Method: PREINCUBATION): inactive; negative; mutagenic call (Test System: AMES SALMONELLA TYPHIMURIUM, Strain/Indicator: TA104, Metabolic Activation: RAT, LIVER, S-9, AROCLOR 1254 (10%), Method: PREINCUBATION): inactive; negative; mutagenic call (Test System: AMES SALMONELLA TYPHIMURIUM, Strain/Indicator: TA104, Metabolic Activation: RAT, LIVER, S-9, AROCLOR 1254 (30%), Method: PREINCUBATION): inactive; negative; mutagenic call (Test System: AMES SALMONELLA TYPHIMURIUM, Strain/Indicator: TA1535, Metabolic Activation: HAMSTER, LIVER, S-9, AROCLOR 1254 (30%), Method: PREINCUBATION): inactive; negative; mutagenic call (Test System: AMES SALMONELLA TYPHIMURIUM, Strain/Indicator: TA1535, Metabolic Activation: RAT, LIVER, S-9, AROCLOR 1254 (30%), Method: PREINCUBATION): inactive; negative"
O=C(c1ccc([N+](=O)[O-])cc1)[C@@H]1O[C@@H]1c1ccccc1,–,–,–,–,–,–,–,–,–,–,–,–,–,"mutagenic call (Test System: AMES SALMONELLA TYPHIMURIUM, Strain/Indicator: TA98, Metabolic Activation: NONE, Method: STANDARD PLATE): inactive; negative; mutagenic call (Test System: AMES SALMONELLA TYPHIMURIUM, Strain/Indicator: TA98, Metabolic Activation: RAT, LIVER, S-9, AROCLOR 1254, Method: STANDARD PLATE): inactive; negative; mutagenic call (Test System: AMES SALMONELLA TYPHIMURIUM, Strain/Indicator: TA100, Metabolic Activation: NONE, Method: STANDARD PLATE): active; positive; mutagenic call (Test System: AMES SALMONELLA TYPHIMURIUM, Strain/Indicator: TA100, Metabolic Activation: RAT, LIVER, S-9, AROCLOR 1254, Method: STANDARD PLATE): active; positive"
